According to ChEMBL document CHEMBL4017512 (J Med Chem, 2017):

What was measured:
HCT-116 = experiment: Antiproliferative activity against human HCT116 cells after 72 hrs by phosphatase assay; assay type: functional, cell-based; details: HCT-116, 72 h
[1] = Displacement of BODIPY-labeled vinblastine from tubulin (unknown origin) at 18 uM after 60 mins by fluorescence assay relative to control; details: Homo sapiens
[2] = Cytotoxicity against human HCT116/VM46 cells assessed as reduction in cell viability after 72 hrs by phosphatase assay; assay type: cell-based; details: HCT-116/VM46, 72 h
L1210 = experiment: Antiproliferative activity against mouse L1210 cells after 72 hrs by phosphatase assay; assay type: functional, cell-based; details: L1210, 72 h

SMILES	IC50 (HCT-116) [nM]	IC50 (L1210) [nM]	inhibition [1] [%]	IC50 [2] [nM]
CC[C@]1(NC(=O)c2ccccc2)C[C@H]2CN(CCc3c([nH]c4ccccc34)[C@@](C(=O)OC)(c3cc4c(cc3OC)N(C)[C@H]3[C@@](O)(C(=O)OC)[C@H](OC(C)=O)[C@]5(CC)C=CCN6CC[C@]43[C@@H]65)C2)C1	0.8	1.1	72	20
CC[C@]1(NC(=O)c2cccc(S(=O)(=O)F)c2)C[C@H]2CN(CCc3c([nH]c4ccccc34)[C@@](C(=O)OC)(c3cc4c(cc3OC)N(C)[C@H]3[C@@](O)(C(=O)OC)[C@H](OC(C)=O)[C@]5(CC)C=CCN6CC[C@]43[C@@H]65)C2)C1	30	40		570
CC[C@]1(NC(=O)c2nc3ccccc3s2)C[C@H]2CN(CCc3c([nH]c4ccccc34)[C@@](C(=O)OC)(c3cc4c(cc3OC)N(C)[C@H]3[C@@](O)(C(=O)OC)[C@H](OC(C)=O)[C@]5(CC)C=CCN6CC[C@]43[C@@H]65)C2)C1	80	180		470
CC[C@]1(NC(=O)c2ccc(N(C)C)cc2)C[C@H]2CN(CCc3c([nH]c4ccccc34)[C@@](C(=O)OC)(c3cc4c(cc3OC)N(C)[C@H]3[C@@](O)(C(=O)OC)[C@H](OC(C)=O)[C@]5(CC)C=CCN6CC[C@]43[C@@H]65)C2)C1		0.18	88	4.1
CC[C@]1(NC(=O)c2cccc3ccccc23)C[C@H]2CN(CCc3c([nH]c4ccccc34)[C@@](C(=O)OC)(c3cc4c(cc3OC)N(C)[C@H]3[C@@](O)(C(=O)OC)[C@H](OC(C)=O)[C@]5(CC)C=CCN6CC[C@]43[C@@H]65)C2)C1	65	60		220
CC[C@]1(NC(=O)c2cccnc2)C[C@H]2CN(CCc3c([nH]c4ccccc34)[C@@](C(=O)OC)(c3cc4c(cc3OC)N(C)[C@H]3[C@@](O)(C(=O)OC)[C@H](OC(C)=O)[C@]5(CC)C=CCN6CC[C@]43[C@@H]65)C2)C1	0.6	0.7		50
CC[C@]1(NC(=O)c2nc3ccccc3o2)C[C@H]2CN(CCc3c([nH]c4ccccc34)[C@@](C(=O)OC)(c3cc4c(cc3OC)N(C)[C@H]3[C@@](O)(C(=O)OC)[C@H](OC(C)=O)[C@]5(CC)C=CCN6CC[C@]43[C@@H]65)C2)C1	60	60		190
CC[C@]1(NC(=O)c2ccc3cc(NC(=O)OC(C)(C)C)ccc3c2)C[C@H]2CN(CCc3c([nH]c4ccccc34)[C@@](C(=O)OC)(c3cc4c(cc3OC)N(C)[C@H]3[C@@](O)(C(=O)OC)[C@H](OC(C)=O)[C@]5(CC)C=CCN6CC[C@]43[C@@H]65)C2)C1	6.5	5		60
CC[C@]1(NC(=O)c2ccc3cnccc3c2)C[C@H]2CN(CCc3c([nH]c4ccccc34)[C@@](C(=O)OC)(c3cc4c(cc3OC)N(C)[C@H]3[C@@](O)(C(=O)OC)[C@H](OC(C)=O)[C@]5(CC)C=CCN6CC[C@]43[C@@H]65)C2)C1	0.6	0.6		7.3
CCc1ccc(C(=O)N[C@@]2(CC)C[C@H]3CN(CCc4c([nH]c5ccccc45)[C@@](C(=O)OC)(c4cc5c(cc4OC)N(C)[C@H]4[C@@](O)(C(=O)OC)[C@H](OC(C)=O)[C@]6(CC)C=CCN7CC[C@]54[C@@H]76)C3)C2)cc1	0.7	0.65		3.4
CC[C@]1(NC(=O)C2CCOCC2)C[C@H]2CN(CCc3c([nH]c4ccccc34)[C@@](C(=O)OC)(c3cc4c(cc3OC)N(C)[C@H]3[C@@](O)(C(=O)OC)[C@H](OC(C)=O)[C@]5(CC)C=CCN6CC[C@]43[C@@H]65)C2)C1	35	70		3500
CC[C@]1(NC(=O)c2ccc3c(c2)CCC3)C[C@H]2CN(CCc3c([nH]c4ccccc34)[C@@](C(=O)OC)(c3cc4c(cc3OC)N(C)[C@H]3[C@@](O)(C(=O)OC)[C@H](OC(C)=O)[C@]5(CC)C=CCN6CC[C@]43[C@@H]65)C2)C1	5.6	5		11
CC[C@]1(NC(=O)c2cc(Cl)c(OC)c(Cl)c2)C[C@H]2CN(CCc3c([nH]c4ccccc34)[C@@](C(=O)OC)(c3cc4c(cc3OC)N(C)[C@H]3[C@@](O)(C(=O)OC)[C@H](OC(C)=O)[C@]5(CC)C=CCN6CC[C@]43[C@@H]65)C2)C1	4.2	3.1		25
CC[C@]1(NC(=O)c2ccc(OC)c(Br)c2)C[C@H]2CN(CCc3c([nH]c4ccccc34)[C@@](C(=O)OC)(c3cc4c(cc3OC)N(C)[C@H]3[C@@](O)(C(=O)OC)[C@H](OC(C)=O)[C@]5(CC)C=CCN6CC[C@]43[C@@H]65)C2)C1	6.2	5.1		40
CC[C@]1(NC(=O)c2ccc(C#N)cc2)C[C@H]2CN(CCc3c([nH]c4ccccc34)[C@@](C(=O)OC)(c3cc4c(cc3OC)N(C)[C@H]3[C@@](O)(C(=O)OC)[C@H](OC(C)=O)[C@]5(CC)C=CCN6CC[C@]43[C@@H]65)C2)C1	3.1	4.4	56	60
CC[C@]1(NC(=O)c2cccc(C)c2)C[C@H]2CN(CCc3c([nH]c4ccccc34)[C@@](C(=O)OC)(c3cc4c(cc3OC)N(C)[C@H]3[C@@](O)(C(=O)OC)[C@H](OC(C)=O)[C@]5(CC)C=CCN6CC[C@]43[C@@H]65)C2)C1	0.7	0.5		3
CC[C@]1(NS(=O)(=O)c2ccc(OC)cc2)C[C@H]2CN(CCc3c([nH]c4ccccc34)[C@@](C(=O)OC)(c3cc4c(cc3OC)N(C)[C@H]3[C@@](O)(C(=O)OC)[C@H](OC(C)=O)[C@]5(CC)C=CCN6CC[C@]43[C@@H]65)C2)C1	30	35		240

Continued, in another order:

IC50 (HCT-116) [nM]	IC50 (L1210) [nM]	SMILES	inhibition [1] [%]	IC50 [2] [nM]
> 10000	4200	CC[C@]1(NC(=O)C2CCNCC2)C[C@H]2CN(CCc3c([nH]c4ccccc34)[C@@](C(=O)OC)(c3cc4c(cc3OC)N(C)[C@H]3[C@@](O)(C(=O)OC)[C@H](OC(C)=O)[C@]5(CC)C=CCN6CC[C@]43[C@@H]65)C2)C1		> 10000
55	50	CC[C@]1(NC(=O)c2ccccc2Cl)C[C@H]2CN(CCc3c([nH]c4ccccc34)[C@@](C(=O)OC)(c3cc4c(cc3OC)N(C)[C@H]3[C@@](O)(C(=O)OC)[C@H](OC(C)=O)[C@]5(CC)C=CCN6CC[C@]43[C@@H]65)C2)C1		390
0.7	0.6	CC[C@]1(NC(=O)/C=C/c2ccncc2)C[C@H]2CN(CCc3c([nH]c4ccccc34)[C@@](C(=O)OC)(c3cc4c(cc3OC)N(C)[C@H]3[C@@](O)(C(=O)OC)[C@H](OC(C)=O)[C@]5(CC)C=CCN6CC[C@]43[C@@H]65)C2)C1		50
3.2	3.1	CC[C@]1(NC(=O)c2ccc(Cl)cc2)C[C@H]2CN(CCc3c([nH]c4ccccc34)[C@@](C(=O)OC)(c3cc4c(cc3OC)N(C)[C@H]3[C@@](O)(C(=O)OC)[C@H](OC(C)=O)[C@]5(CC)C=CCN6CC[C@]43[C@@H]65)C2)C1		50
60	40	CC[C@]1(NC(=O)c2ccc3cc4ccccc4cc3c2)C[C@H]2CN(CCc3c([nH]c4ccccc34)[C@@](C(=O)OC)(c3cc4c(cc3OC)N(C)[C@H]3[C@@](O)(C(=O)OC)[C@H](OC(C)=O)[C@]5(CC)C=CCN6CC[C@]43[C@@H]65)C2)C1		150
0.7	0.6	CC[C@]1(NC(=O)c2ccc(C)c(N)c2)C[C@H]2CN(CCc3c([nH]c4ccccc34)[C@@](C(=O)OC)(c3cc4c(cc3OC)N(C)[C@H]3[C@@](O)(C(=O)OC)[C@H](OC(C)=O)[C@]5(CC)C=CCN6CC[C@]43[C@@H]65)C2)C1		25
4.6	4.3	CC[C@]1(NC(=O)c2ccc(SC(C)C)cc2)C[C@H]2CN(CCc3c([nH]c4ccccc34)[C@@](C(=O)OC)(c3cc4c(cc3OC)N(C)[C@H]3[C@@](O)(C(=O)OC)[C@H](OC(C)=O)[C@]5(CC)C=CCN6CC[C@]43[C@@H]65)C2)C1		55
20	40	CC[C@]1(NC(=O)c2cnccn2)C[C@H]2CN(CCc3c([nH]c4ccccc34)[C@@](C(=O)OC)(c3cc4c(cc3OC)N(C)[C@H]3[C@@](O)(C(=O)OC)[C@H](OC(C)=O)[C@]5(CC)C=CCN6CC[C@]43[C@@H]65)C2)C1		550
50	80	CC[C@]1(NC(=O)c2cn(C)cn2)C[C@H]2CN(CCc3c([nH]c4ccccc34)[C@@](C(=O)OC)(c3cc4c(cc3OC)N(C)[C@H]3[C@@](O)(C(=O)OC)[C@H](OC(C)=O)[C@]5(CC)C=CCN6CC[C@]43[C@@H]65)C2)C1		> 1000
6.5	5.2	CC[C@]1(NC(=O)c2ccc(Oc3ccccc3)cc2)C[C@H]2CN(CCc3c([nH]c4ccccc34)[C@@](C(=O)OC)(c3cc4c(cc3OC)N(C)[C@H]3[C@@](O)(C(=O)OC)[C@H](OC(C)=O)[C@]5(CC)C=CCN6CC[C@]43[C@@H]65)C2)C1		50
0.6	0.7	CC[C@]1(NC(=O)c2ccc3c(c2)ncn3C)C[C@H]2CN(CCc3c([nH]c4ccccc34)[C@@](C(=O)OC)(c3cc4c(cc3OC)N(C)[C@H]3[C@@](O)(C(=O)OC)[C@H](OC(C)=O)[C@]5(CC)C=CCN6CC[C@]43[C@@H]65)C2)C1		8
3.5	2.5	CC[C@]1(NC(=O)c2ccc3cc(OC)ccc3c2)C[C@H]2CN(CCc3c([nH]c4ccccc34)[C@@](C(=O)OC)(c3cc4c(cc3OC)N(C)[C@H]3[C@@](O)(C(=O)OC)[C@H](OC(C)=O)[C@]5(CC)C=CCN6CC[C@]43[C@@H]65)C2)C1		20
